Assay results from publication PMC11435217, “In Vitro Studies of Genistein Lipophilic Derivatives as Potential UV Radiation Protectors” (Pharmaceuticals, 2024).
Like-named read-outs stand apart in the source and are kept apart here.

Experiments:
[1] = tested on: NHDF (normal human dermal fibroblasts); experiment: Determination of EC50 values, MTS assay, NHDF; format: cell-based; conditions: read-out: EC50 (±SE)
Procedure: (§1) NHDFs were purchased from Lonza Group Ltd.—Lonza Verviers (Verviers, Belgium), and the human malignant melanoma (Me45) cell line was obtained from the Maria Skłodowska-Curie Memorial Cancer Center and National Institute of Oncology Branch Gliwice, Poland. […] During the culturing periods, cells were passaged before confluency reached 80% in culture flasks and washed regularly with PBS.
(§2) The EC50 values of genistein and its derivatives for both cell lines were determined using the MTS assay (Cell Titer 96 AQueous One Solution Cell Proliferation Assay, Promega, Madison, WI, USA). Cells were seeded in 96-well plates (5 × 10^3 cells/well) and incubated for 24 h at 37 °C in 5% CO2. Subsequently, the cells were treated with twelve concentrations of each compound ranging from 1–100 µM for 48 h at 37 °C in 5% CO2. Afterwards, the medium, including the investigated compounds, was removed from all wells and replaced with PBS. In total, 20 µL of MTS was added to each well. Plates were then incubated for 2 h at 37 °C in 5% CO2. The absorbance was measured at λ = 490 nm using an Epoch microplate reader (BioTek, Winooski, VT, USA). EC50 values were calculated using Matlab software (Matlab R2022a, MathWorks, Natick, MA, USA).

[2] = tested on: Me45 (human malignant melanoma cell line); experiment: Determination of EC50 values, MTS assay, Me45; format: cell-based; conditions: read-out: EC50 (±SE)
Procedure: as §1, §2

Lipophilicity (Log P) = format: physicochemical
Text: Table 2 Genistein and its derivatives investigated in the study. | column: Log P

[3] = Protective potential against UV irradiation, MTS assay, Me45; format: cell-based; conditions: human
Procedure: Cells from each cell line were seeded in three groups (0, 24, and 48 h) in 96-well plates (5 × 10^3 cells/well) and incubated for 24 h at 37 °C in 5% CO2. Afterwards, the medium in all wells was removed, and cells were treated with 5 µM of genistein, 4′-L-Gen, W-Bn-Gen, or W5-Gen. The chemicals added to the 0 h time point plates were dissolved in PBS. DMEM was used to prepare the chemical solutions for the 24- and 48-h plates.
After incubation, half of the wells on each plate were irradiated with UVC 2 kJ/m^2 in a Crosslinker CL-1000 UV (UVP) device (Ultra-Violet Products Ltd., Cambridge, UK). The MTS assay was performed immediately after irradiation for 0 h plates and after 24 and 48 h of incubation for the other two time points. Before conducting the MTS test, the medium in the 24 and 48 h plates was discarded and replaced with PBS.

Me45 cells [4] = experiment: Cell cycle analysis (flow cytometry, PI), Me45; format: cell-based, human; conditions: 5 µM, 48 h, not exposed to UV
Procedure: (§3) Cells from both cell lines were seeded in 12-well plates (2.5 × 10^4 cells/well) and incubated for 24 h at 37 °C in 5% CO2. The medium in the wells was replaced with fresh DMEM. Cells were treated with 5 µM of genistein, 4′-L-Gen, W5-Gen, or WBn-Gen for 48 h. Medium containing the test substances was removed, and the cells were collected by trypsinization (followed by neutralization of trypsin with medium) in Eppendorf tubes. Tubes were centrifuged (2000 rpm, 3 min), and the supernatant was removed. Subsequently, the fixation of cells in frozen 96% ethanol took place. The ethanol was removed, and cells were washed twice in PBS. Cells were suspended in tubes using 50 µL of […] RNase and then incubated for 15 min at room temperature. Cells were stained with […] propidium iodide solution in PBS and incubated for 20 min at room temperature. Directly before flow cytometry analysis, cells were agitated on a vortex mixer. Cell cycle analysis was performed using a BD FACS Canto flow cytometer, which counted 10,000 cells from every probe. The number of cells in each cell cycle phase was counted by measuring the […] intensity using Diva software (Bd FACSDiva v9.0, Becton Dickinson, Franklin Lakes, NJ, USA).

NHDFs [5] = experiment: Genotoxicity, micronucleus (MN) assay, NHDF; format: cell-based, human; conditions: 5 µM, 48 h
Procedure: (§4) Both cell types were seeded in 6-well plates (2.5 × 10^4 cells/well) and incubated for 24 h at 37 °C in 5% CO2. After incubation, the medium in the wells was changed to 5 µM solutions of genistein, 4′-L-Gen, W-Bn-Gen, or W5-Gen in DMEM and incubated for 1 h at 37 °C in 5% CO2. Half of the treated cells were irradiated, as described above. Afterwards, all the cells were treated with […] cytochalasin B and incubated for 48 h at 37 °C in 5% CO2. Subsequently, cells from each well were trypsinized, washed twice in PBS, and mixed with frosted (−20 °C) Carnoy’s solution (methanol: acetic acid, v/v 3:1). After 2 h, 50 µL of each suspension was placed on a microscopic slide and dried. Before microscopic analysis, slides were stained with 2 µg/mL DAPI (dissolved in DMSO) and covered with cover glasses. Slides were observed using a fluorescent microscope (Zeiss Axio Imager. M1 with EC Plan- NEOFLUAR 40× objective, Zeiss, Oberkochen, Germany). A total of 500 cells on each slide were counted, taking into account binucleated, binucleated with MN, mononucleated, and apoptotic cells. The NDI was calculated using a modified method by Eastmond and Tucker (1989) according to the following Equation (2):(2) NDI=MNu+2(Bnu+BNuMN)/∑cells where MNu is the number of cells with one nucleus, BNu is the number of binucleated cells, and BNuMN is the number of binucleated cells with MN.

Me45 cells [6] = experiment: Genotoxicity, micronucleus (MN) assay, Me45; format: cell-based, human; conditions: 5 µM, 48 h, exposed and not exposed to UV radiation
Procedure: as §4

[7] = tested on: estrogen receptors ERα and ERβ; conditions: cited from earlier work
NHDFs [8] = experiment: Cell cycle analysis (flow cytometry, PI), NHDF; format: cell-based, human; conditions: 5 µM, 48 h, not exposed to UV
Procedure: as §3

[9] = 48 h treatment, 1–100 µM, concentration causing 50% toxicity
[10] = Me45, 48 h treatment, 1–100 µM, concentration causing 50% toxicity

| SMILES | EC50 ([1]; 48 h) [µM] | EC50 ([2]; 48 h) [µM] | logP (Lipophilicity (Log P)) | mortality at 0 h, 5 µM [3] [%] | viability at 48 h, 5 µM ([3]; Me45, 5 µM, after 48 h, both exposed and not exposed to UV radiation, read-out: viability of treated cells much lower than in the control samples) [%] | suppression of the G1 phase, ranking (in words) (Me45 cells [4]) | EC50 [1, 9] [µM] | EC50 [2, 10] [µM] | logP (Lipophilicity (Log P); method not stated, read-out: Log P) | mortality at 0 h, 5 µM ([3]; Me45, 5 µM, shortest incubation (first time point, before the 24 h reading), read-out: mortality compared to control untreated cells) [%] | effect on number of cells with MN (in words) (NHDFs [5]; NHDF) | effect on number of cells with MN (in words) (Me45 cells [6]) | binding to ERβ versus ERα, times more strongly [7] | DNA damage (percentage of binucleated cells with MN) (NHDFs [5]; human) | suppression of the cell cycle in the G2/M phase, cells compared to the controls (NHDFs [8]) [%] |
| --- | --- | --- | --- | --- | --- | --- | --- | --- | --- | --- | --- | --- | --- | --- | --- |
| CCCCCCCCCCCC(=O)Oc1ccc(-c2coc3cc(O)cc(O)c3c2=O)cc1 [4′-L-Gen, 4′-genistein dodecanate] | 6.5 | 60.5 | 5.71 | ~10 | ~50 | weakest effect | – | – | – | – | – | – | – | – | – |
| CCCCCOC(=O)Oc1cc(O)c2c(=O)c(-c3ccc(O)cc3)coc2c1 [Compound W5-Gen, n-pentyl-7-O-genistein carbonate] | – | – | 3.96 | – | – | – | 5.6 | 92.2 | – | – | – | – | – | – | – |
| O=c1c(-c2ccc(O)cc2)coc2cc(O)cc(O)c12 [Gen, Genistein] | 8.6 | 78.2 | – | – | – | strongest effect | – | – | 1.74 | 50 | decreased the number of cells with MN | increases the number of cells with MN | 20–30 times | – | – |
| O=C(OCc1ccccc1)Oc1cc(O)c2c(=O)c(-c3ccc(O)cc3)coc2c1 [WBn-Gen, bezyl-7-O-genistein carbonate] | – | – | 4.04 | – | – | – | 6 | 71.2 | – | – | – | – | – | 10.5–11% | 6 |
